Laboratory results as given in US12264156B2, “Compounds and pharmaceutical compositions thereof for the treatment of diseases” (GALAPAGOS NV, priority 2018, dated 2025).

Key:
SIK1 = target: T1, SIK1 (Homo sapiens, UniProt P57059); assay: ADP-Glo kinase assay, SIK1; assay type: biochemical; conditions: ADP-Glo SIK kinase assay
T1 construct: purchased Carna Biosciences 02-131
Summary of the method: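 Enzyme–substrate mix was started with ATP and incubated 120 min at RT. ADP formed was quantified by ADP-Glo: 40 min ATP depletion, then 30 min detection reagent converting ADP to ATP for luciferase luminescence, which rises with kinase activity. Controls: 1% DMSO and 10 μM staurosporine (final).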

SIK3 = target: T2, SIK3 (Homo sapiens, UniProt Q9Y2K2); assay: ADP-Glo kinase assay, SIK3; assay type: biochemical; conditions: ADP-Glo SIK kinase assay
T2 construct: purchased SignalChem S12-11G-100
T2 sequence (Q9Y2K2 whole entry): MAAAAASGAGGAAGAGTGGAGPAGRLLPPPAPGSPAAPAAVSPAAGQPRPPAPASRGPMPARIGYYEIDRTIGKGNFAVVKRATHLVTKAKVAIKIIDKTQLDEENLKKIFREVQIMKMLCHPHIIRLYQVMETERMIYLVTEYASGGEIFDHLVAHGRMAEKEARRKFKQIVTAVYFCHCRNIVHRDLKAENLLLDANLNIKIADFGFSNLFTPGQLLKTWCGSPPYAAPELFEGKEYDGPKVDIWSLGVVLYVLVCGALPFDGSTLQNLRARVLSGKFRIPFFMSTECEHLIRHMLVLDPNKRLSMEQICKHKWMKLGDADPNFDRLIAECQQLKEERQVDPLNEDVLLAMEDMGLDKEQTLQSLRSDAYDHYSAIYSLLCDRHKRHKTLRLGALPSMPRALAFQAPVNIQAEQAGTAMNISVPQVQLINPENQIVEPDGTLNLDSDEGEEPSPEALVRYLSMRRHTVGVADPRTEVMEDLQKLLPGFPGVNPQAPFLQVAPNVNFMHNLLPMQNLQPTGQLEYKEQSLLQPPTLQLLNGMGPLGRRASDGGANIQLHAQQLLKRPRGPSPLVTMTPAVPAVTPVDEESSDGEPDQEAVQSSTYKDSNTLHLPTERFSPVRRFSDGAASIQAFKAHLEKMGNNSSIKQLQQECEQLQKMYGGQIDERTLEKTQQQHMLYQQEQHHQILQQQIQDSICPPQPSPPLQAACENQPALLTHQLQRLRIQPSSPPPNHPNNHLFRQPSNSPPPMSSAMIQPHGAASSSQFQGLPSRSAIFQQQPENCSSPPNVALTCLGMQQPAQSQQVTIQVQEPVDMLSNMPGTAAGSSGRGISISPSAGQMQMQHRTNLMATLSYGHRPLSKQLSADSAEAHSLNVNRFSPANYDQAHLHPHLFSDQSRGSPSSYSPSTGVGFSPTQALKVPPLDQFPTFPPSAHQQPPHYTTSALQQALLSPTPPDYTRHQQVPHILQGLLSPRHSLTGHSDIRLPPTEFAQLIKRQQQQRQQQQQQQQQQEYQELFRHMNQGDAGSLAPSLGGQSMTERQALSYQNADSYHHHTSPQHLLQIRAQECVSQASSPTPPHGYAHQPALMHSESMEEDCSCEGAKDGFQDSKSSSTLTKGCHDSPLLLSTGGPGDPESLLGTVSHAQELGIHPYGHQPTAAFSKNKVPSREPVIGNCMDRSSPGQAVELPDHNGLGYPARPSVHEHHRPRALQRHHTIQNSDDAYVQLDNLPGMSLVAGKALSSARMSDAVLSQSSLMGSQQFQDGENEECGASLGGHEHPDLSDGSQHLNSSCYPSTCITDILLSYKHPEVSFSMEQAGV
Summary of the method: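 Wells with 1% DMSO or 10 μM staurosporine (final) define the control window. The kinase reaction with substrate and ATP runs 120 min at RT, followed by ADP-Glo detection: ATP depletion (40 min) and ADP-derived luminescence (30 min).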

[1] = test system: LPS-induced TNFα in monocyte-derived macrophages (MdM); assay: MdM assay: LPS-triggered TNFα (ELISA); assay type: cell-based, human; conditions: Homo sapiens, Macrophage, 20 h, monocyte-derived macrophages, LPS 200 ng/mL, supernatant after 20 h; read-out: TNFα EC50
Summary of the method: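 Human monocyte-derived macrophages from CD14+ bead-selected buffy-coat PBMCs, used on day 10, pre-treated with compound for 1 h at 37 °C (0.2% DMSO), then stimulated with 200 ng/mL LPS. Supernatant taken after 20 h for TNFα sandwich ELISA (IL-10 at 2 h).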

T1 sequence (P57059 whole entry): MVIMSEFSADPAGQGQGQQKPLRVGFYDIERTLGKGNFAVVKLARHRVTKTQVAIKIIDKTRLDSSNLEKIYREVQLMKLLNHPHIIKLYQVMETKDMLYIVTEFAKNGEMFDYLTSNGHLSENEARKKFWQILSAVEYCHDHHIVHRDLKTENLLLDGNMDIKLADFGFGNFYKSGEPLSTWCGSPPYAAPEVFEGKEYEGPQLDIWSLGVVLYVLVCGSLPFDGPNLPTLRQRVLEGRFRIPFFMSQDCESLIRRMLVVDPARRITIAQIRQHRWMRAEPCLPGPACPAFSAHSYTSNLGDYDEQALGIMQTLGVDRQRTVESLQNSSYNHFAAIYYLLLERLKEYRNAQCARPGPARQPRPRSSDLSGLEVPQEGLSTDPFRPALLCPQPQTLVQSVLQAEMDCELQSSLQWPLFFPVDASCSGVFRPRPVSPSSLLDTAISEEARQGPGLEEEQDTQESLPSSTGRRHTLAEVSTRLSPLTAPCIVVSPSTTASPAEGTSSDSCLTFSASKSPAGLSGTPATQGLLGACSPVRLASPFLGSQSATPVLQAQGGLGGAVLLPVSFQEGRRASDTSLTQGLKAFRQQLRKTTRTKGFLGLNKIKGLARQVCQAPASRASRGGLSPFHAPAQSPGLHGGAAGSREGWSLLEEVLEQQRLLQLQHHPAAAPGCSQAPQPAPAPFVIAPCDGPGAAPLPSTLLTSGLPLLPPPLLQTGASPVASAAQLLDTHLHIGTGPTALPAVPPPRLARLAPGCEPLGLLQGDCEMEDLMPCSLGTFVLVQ

| IC50 (SIK1) [nM] | IC50 (SIK3) [nM] | EC50 [1] [nM] | SMILES |
| --- | --- | --- | --- |
| 10 to 100 | 0.01 to 10 | 0.1 to 100 | CCOC(=O)C1(F)CCN(CCOc2ccn3c(-c4cc(OC)c(C(=O)NC5CC5)c(OC(F)F)c4)cnc3c2)CC1 [compound 390, ethyl 1-[2-[3-[4-(cyclopropylcarbamoyl)-3-(difluoromethoxy)-5-methoxy-phenyl]imidazo[1,2-a]pyridin-7-yl]oxyethyl]-4-fluoro-piperidine-4-carboxylate] |
| 100 to 500 | 0.01 to 10 | 100 to 1000 | COc1cc(-c2cnc3cc(OC(C)C(F)(F)F)ccn23)cc(OC(F)F)c1C(=O)NC1CC1 (stereo not drawn) [compound 45, N-cyclopropyl-2-(difluoromethoxy)-6-methoxy-4-[7-(2,2,2-trifluoro-1-methyl-ethoxy)imidazo[1,2-a]pyridin-3-yl]benzamide] |
| 10 to 100 | 0.01 to 10 | 0.1 to 100 | COc1cc(-c2cnc3cc(OCC(O)CN4CCOCC4)ccn23)cc(OC(F)F)c1C(=O)NC1CC1 (stereo not drawn) [Cpd 330, N-cyclopropyl-2-(difluoromethoxy)-4-[7-(2-hydroxy-3-morpholino-propoxy)imidazo[1,2-a]pyridin-3-yl]-6-methoxy-benzamide] |
| 100 to 500 | 0.01 to 10 | 100 to 1000 | COc1cc(-c2cnc3cc(OCc4cnco4)ccn23)cc2c1C(=O)N(CC(F)(F)F)CC2 [compound 126, 8-methoxy-6-[7-(oxazol-5-ylmethoxy)imidazo[1,2-a]pyridin-3-yl]-2-(2,2,2-trifluoroethyl)-3,4-dihydroisoquinolin-1-one] |
| 10 to 100 | 0.01 to 10 | 0.1 to 100 | COc1cc(-c2cnc3cc(OCCN4CCCCC4)ccn23)cc(OC(F)F)c1C(=O)NC1CC1 [compound 10, N-cyclopropyl-2-(difluoromethoxy)-6-methoxy-4-[7-[2-(1-piperidyl)ethoxy]imidazo [1,2-a]pyridin-3-yl]benzamide] |
| 100 to 500 | 0.01 to 10 | 100 to 1000 | CCN(CC)CCOc1ccn2c(-c3cc4c(c(OC)c3)C(=O)N(CC(F)(F)F)CC4)cnc2c1 [compound 128, 6-[7-[2-(diethylamino)ethoxy]imidazo[1,2-a]pyridin-3-yl]-8-methoxy-2-(2,2,2-trifluoroethyl)-3,4-dihydroisoquinolin-1-one] |
| 10 to 100 | 0.01 to 10 | 100 to 1000 | COc1cc(-c2cnc3cc(OCCCN4CC5(COC5)C4)ccn23)cc(OC(F)F)c1C(=O)NC1CC1 [compound 273, N-cyclopropyl-2-(difluoromethoxy)-6-methoxy-4-[7-[3-(2-oxa-6-azaspiro[3.3]heptan-6-yl)propoxy]imidazo[1,2-a]pyridin-3-yl]benzamide] |
| 10 to 100 | 0.01 to 10 | 100 to 1000 | CCNCCOc1ccn2c(-c3cc(OC)c(C(=O)NC4CC4)c(OC(F)F)c3)cnc2c1 [compound 37, N-cyclopropyl-2-(difluoromethoxy)-4-[7-[2-(ethylamino)ethoxy]imidazo[1,2-a]pyridin-3-yl]-6-methoxy-benzamide] |
| 100 to 500 | 0.01 to 10 | 100 to 1000 | COc1cc(-c2cnc3cc(OCCC4CCCN4C)ccn23)cc2c1C(=O)N(CC(F)(F)F)CC2 (stereo not drawn) [Cpd 122, 8-methoxy-6-[7-[2-(1-methylpyrrolidin-2-yl)ethoxy]imidazo[1,2-a]pyridin-3-yl]-2-(2,2,2-trifluoroethyl)-3,4-dihydroisoquinolin-1-one] |
| 100 to 500 | 0.01 to 10 | 100 to 1000 | COc1cc(-c2cnc3cc(OCC4CN(C)C4)ccn23)cc2c1C(=O)N(CC(F)(F)F)CC2 [compound 39, 8-methoxy-6-[7-[(1-methylazetidin-3-yl)methoxy]imidazo[1,2-a]pyridin-3-yl]-2-(2,2,2-trifluoroethyl)-3,4-dihydro isoquinolin-1-one] |
| 100 to 500 | 0.01 to 10 | 100 to 1000 | COc1cc(-c2cnc3cc(OCC4CCO4)ccn23)cc2c1C(=O)N(CC(F)(F)F)CC2 (stereo not drawn) [compound 125, 8-methoxy-6-[7-(oxetan-2-ylmethoxy)imidazo[1,2-a]pyridin-3-yl]-2-(2,2,2-trifluoroethyl)-3,4-dihydroisoquinolin-1-one] |
| > 500 | 10 to 100 | > 5000 | CNc1cc(-c2cnc3cc(OCCN(C)C)ccn23)cc2c1C(=O)N(CC(F)(F)F)CC2 [compound 167, 6-[7-[2-(dimethylamino)ethoxy]imidazo[1,2-a]pyridin-3-yl]-8-(methylamino)-2-(2,2,2-trifluoroethyl)-3,4-dihydroisoquinolin-1-one] |
| 100 to 500 | 0.01 to 10 | 1000 to 5000 | COc1cc(-c2cnc3cc(OC[C@H]4COCCO4)ccn23)cc2c1C(=O)N(CC(F)F)CC2 [compound 219, 2-(2,2-difluoroethyl)-6-[7-[[(2R)-1,4-dioxan-2-yl]methoxy]imidazo[1,2-a]pyridin-3-yl]-8-methoxy-3,4-dihydroisoquinolin-1-one] |
| > 500 | 10 to 100 | 100 to 1000 | COc1cc(-c2cnc3cc(OCCN(C)C)ccn23)cc2c1C(=O)N(CC(F)F)CC2 [compound 54, 2-(2,2-difluoroethyl)-6-[7-[2-(dimethylamino)ethoxy]imidazo [1,2-a]pyridin-3-yl]-8-methoxy-3,4-dihydro isoquinolin-1-one] |
| 10 to 100 | 0.01 to 10 | 100 to 1000 | COc1cc(-c2cnc3cc(OCCOCCN4CCCCC4)ccn23)cc(OC(F)F)c1C(=O)NC1CC1 [compound 305] |
| 100 to 500 | 0.01 to 10 | 100 to 1000 | COc1cc(-c2cnc3cc(OCCN(C)C)ccn23)cc(OC(F)F)c1C(=O)NCC(F)(F)F [compound 166, 2-(difluoromethoxy)-4-[7-[2-(dimethylamino)ethoxy]imidazo[1,2-a]pyridin-3-yl]-6-methoxy-N-(2,2,2-trifluoroethyl)benzamide] |
| 100 to 500 | 0.01 to 10 | 100 to 1000 | COc1cc(-c2cnc3cc(OC[C@H]4CCCCN4C)ccn23)cc(OC(F)F)c1C(=O)NC1CC1 [compound 111, N-cyclopropyl-2-(difluoromethoxy)-6-methoxy-4-[7-[[(2R)-1-methyl-2-piperidyl]methoxy]imidazo[1,2-a]pyridin-3-yl]benzamide] |
| 100 to 500 | 0.01 to 10 | 1000 to 5000 | COc1cc(-c2cnc3cc(OCCN4CCS(=O)(=O)CC4)ccn23)cc2c1C(=O)N(CC(F)(F)F)CC2 [compound 41, 6-[7-[2-(1,1-dioxo-1,4-thiazinan-4-yl)ethoxy]imidazo[1,2-a]pyridin-3-yl]-8-methoxy-2-(2,2,2-trifluoroethyl)-3,4-dihydroisoquinolin-1-one] |
| > 500 | 10 to 100 | 100 to 1000 | COc1cc(-c2cnc3cc(OCCN(C)C)ccn23)cc2c1C(=O)N(CC(F)(F)F)CC2 [Cpd 18, 6-[7-[2-(dimethylamino)ethoxy]imidazo[1,2-a]pyridin-3-yl]-8-methoxy-2-(2,2,2-trifluoroethyl)-3,4-dihydroisoquinolin-1-one] |
| 10 to 100 | 0.01 to 10 | 100 to 1000 | COc1cc(-c2cnc3cc(OCCCN4CCS(=O)(=O)CC4)ccn23)cc(OC(F)F)c1C(=O)NC1CC1 [Cpd 331, N-cyclopropyl-2-(difluoromethoxy)-4-[7-[3-(1,1-dioxo-1,4-thiazinan-4-yl)propoxy]imidazo[1,2-a]pyridin-3-yl]-6-methoxy-benzamide] |
| 100 to 500 | 0.01 to 10 | 100 to 1000 | COc1cc(-c2cnc3cc(OC[C@H]4CCCN4C)ccn23)cc(OC(F)F)c1C(=O)NC1CC1 [compound 81, N-cyclopropyl-2-(difluoromethoxy)-6-methoxy-4-[7-[[(2R)-1-methylpyrrolidin-2-yl]methoxy]imidazo[1,2-a]pyridin-3-yl]benzamide] |
| 10 to 100 | 0.01 to 10 | 0.1 to 100 | COc1cc(-c2cnc3cc(OCCC4CCCN4C)ccn23)cc(OC(F)F)c1C(=O)NC1CC1 (stereo not drawn) [compound 17, N-cyclopropyl-2-(difluoromethoxy)-6-methoxy-4-[7-[2-(1-methylpyrrolidin-2-yl)ethoxy]imidazo[1,2-a]pyridin-3-yl]benzamide] |
| 10 to 100 | 0.01 to 10 | 100 to 1000 | COc1cc(-c2cnc3cc(OCC4CN(C)C4)ccn23)cc(OC(F)F)c1C(=O)NC1CC1 [Cpd 14, N-cyclopropyl-2-(difluoromethoxy)-6-methoxy-4-[7-[(1-methylazetidin-3-yl)methoxy]imidazo[1,2-a]pyridin-3-yl]benzamide] |
| > 500 | 0.01 to 10 | 100 to 1000 | COc1cc(-c2cnc3cc(OCCN4CCCCC4)ccn23)cc2c1C(=O)N(CC(F)(F)F)CC2 [compound 40, 8-methoxy-6-[7-[2-(1-piperidyl)ethoxy]imidazo [1,2-a]pyridin-3-yl]-2-(2,2,2-trifluoroethyl)-3,4-dihydroisoquinolin-1-one] |
| 100 to 500 | 0.01 to 10 | 1000 to 5000 | COc1cc(-c2cnc3cc(OCC(C)(C)N)ccn23)cc(OC(F)F)c1C(=O)NC1CC1 [compound 104, 4-[7-(2-amino-2-methyl-propoxy)imidazo[1,2-a]pyridin-3-yl]-N-cyclopropyl-2-(difluoromethoxy)-6-methoxy-benzamide] |
| 10 to 100 | 0.01 to 10 | 0.1 to 100 | COc1cc(-c2cnc3cc(OCCCN(C)C)ccn23)cc(OC(F)F)c1C(=O)NC1CC1 [Cpd 13] |
